We go through five compounds from patent publication US10457689B2, “Ammonium derivatives, a process for their preparation and pharmaceutical compositions containing them” (LES LABORATOIRES SERVIER, priority 2016, dated 2019).

Converted amounts (≈) assume the structure as drawn. Counter-ions that a name gives are not always drawn. A value given as a limit tells only on which side of the number the result lay.

For data set [1], the target named is Mcl-1 protein (Homo sapiens, UniProt Q07820). Nature of the data set: Inhibition of Mcl-1 by the fluorescence polarisation technique. It is filed as binding. Conditions: fluorescence polarisation test; read-out: IC50 (M) Mcl-LFP. The protocol:
The relative, binding potency of each compound was determined via Fluorescence Polarisation (FP). The method utilised a Fluorescein labelled ligand (Fluorescein-βAla-Ahx-A-REIGAQLRRMADDLNAQY-OH; mw 2,765) which binds to the Mcl-1 protein (such that Mcl-1 corresponds to the UniProtKB® primary accession number: Q07820) leading to an increased anisotropy measured in milli-polarisation (mP) units using a reader. The addition of a compound which binds competitively to the same site as the ligand will result in a greater proportion of unbound ligand in the system indicated by a decrease in mP units.
An 11 point serial dilution of each compound was prepared in DMSO and 2 μl transferred into flat bottomed, low binding, 384-well plate (final DMSO concentration 5%), 38 μl of buffer (10 mM 4-(2-hydroxyethyl)-1-piperazineethanesolfonic acid [HEPES], 150 mM NaCl, 0.05% Tween 20, pH 7.4), containing the Fluorescein labelled ligand (final concentration 1 nM) and Mcl-1 protein (final concentration 5 nM) was then added.
Assay plates were incubated ˜2 hours at room temperature before FP was measured on a […] Synergy2 reader (Ex. 528 nm, Em. 640 nm, Cut off 510 nm) and mP units calculated. The binding of increasing doses of test compound was expressed as a percentage reduction in mP compared to a window established between ‘5% DMSO only’ and ‘100% inhibition’ controls. 11-point dose response curves were plotted with XL-Fit software using a 4-Parameter Logistic Model (Sigmoidal Dose-Response Model) and the inhibitory concentrations that gave a 50% reduction in mP (IC50) were determined.

For data set [2], the system named is H929 multiple myeloma tumour line. Nature of the data set: In vitro cytotoxicity (MTT). It is filed as cell-based. To be noted: 48 hours exposure. The protocol:
The cytotoxicity studies were carried out on the H929 multiple myeloma tumour line.
The cells are distributed onto microplates and exposed to the test compound for 48 hours.
The cell viability is then quantified by a colorimetric assay, the Microculture Tetrazolium Assay (Carmichael et al. Cancer Res. 1987, 47, 936-942).

A short description of data set [3]: Solubility test Method 1. It is filed as physicochemical. Conditions: Method 1: 30% propylene glycol in water, shaked 72 hours at room temperature. As to the method:
Sample solutions (around 16.7 mg/ml) in propylene glycol were diluted with water (30% propylene glycol). Then, samples were shaked for 72 hours at room temperature. After shaking period, samples were centrifuged, then the liquid phase was filtered and analyzed using HPLC coupled to UV detection. To determine the actual concentration a 5-point calibration curve was established.

Data set [4] in a line: Solubility test Method 2. To be noted: Method 2: aqueous phosphate buffer 67.7 mM, pH 7.4, room temperature. It is filed as physicochemical. As to the method: Samples (40 mg/mL) were diluted in aqueous phosphate buffer (67.7 mM, with pH adjusted at 7.4) used for in vivo studies. Samples were shaked at room temperature, then filtered. The solubilized fraction was quantified by LC-MS-MS analysis.

Mcl-1 protein, sequence (Q07820 whole entry): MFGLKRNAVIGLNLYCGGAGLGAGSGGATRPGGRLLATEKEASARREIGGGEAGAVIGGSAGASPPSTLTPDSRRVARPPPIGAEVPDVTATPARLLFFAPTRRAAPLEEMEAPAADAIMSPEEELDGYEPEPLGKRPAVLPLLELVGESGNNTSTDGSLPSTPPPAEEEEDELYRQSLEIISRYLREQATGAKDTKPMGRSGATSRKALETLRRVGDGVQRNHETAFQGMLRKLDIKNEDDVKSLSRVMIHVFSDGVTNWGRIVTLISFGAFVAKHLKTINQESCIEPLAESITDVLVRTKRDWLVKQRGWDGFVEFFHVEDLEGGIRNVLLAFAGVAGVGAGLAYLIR

`COc1ccccc1-c1nccc(COc2ccccc2C[C@@H](Oc2ncnc3sc(-c4ccc(F)cc4)c(-c4ccc(OCCN5CC[N+](C)(COP(=O)([O-])O)CC5)c(Cl)c4C)c23)C(=O)O)n1` [Example 1, {4-[2-(4-{(5Sa)-4-[(1R)-1-carboxy-2-(2-{[2-(2-methoxyphenyl)pyrimidin-4-yl]methoxy}phenyl)ethoxy]-6-(4-fluorophenyl)thieno[2,3-d]pyrimidin-5-yl}-2-chloro-3-methylphenoxy)ethyl]-1-methylpiperazin-1-ium-1-yl}methyl hydrogen phosphate]: the half-inhibitory concentration (IC50) in data set [1] amounted to 1.03e-09 M; in data set [2] (H929 cells), 28.4 nM. The compound also yielded a solubility in data set [3] of at least 4907 µM.
Turning to `COc1ccccc1-c1nccc(COc2ccccc2CC(Oc2ncnc3sc(-c4ccc(F)cc4)c(-c4ccc(OCC[N+](C)(C)COP(=O)([O-])O)c(Cl)c4C)c23)C(=O)O)n1` [Example 11, {4-[2-(4-{(5Sa)-4-[(1R)-1-carboxy-2-(2-{[2-(2-methoxyphenyl)pyrimidin-4-yl]methoxy}phenyl)ethoxy]-6-(4-fluorophenyl)thieno[2,3-d]pyrimidin-5-yl}-2-chloro-3-methylphenoxy)ethyl](dimethyl)ammonio}methyl hydrogen phosphate], the IC50 in data set [1] stood at 1.06e-09 M; in data set [2] (Homo sapiens, NCI-H929, H929 cells) it was 39.3 nM. This compound also displayed a solubility in data set [4] above 35 mg/mL.
`COc1ccccc1-c1nccc(COc2ccccc2C[C@@H](Oc2ncnc3sc(-c4ccc(F)cc4)c(-c4ccc(OCCN5CCN(C)CC5)c(Cl)c4C)c23)C(=O)O)n1` [(2R)-2-{[(5Sa)-5-{3-chloro-2-methyl-4-[2-(4-methylpiperazin-1-yl)ethoxy]phenyl}-6-(4-fluorophenyl)thieno[2,3-d]pyrimidin-4-yl]oxy}-3-(2-{[2-(2-methoxyphenyl)pyrimidin-4-yl]methoxy}phenyl)propanoic acid, reference compound] displayed a solubility in data set [3] of 63.3 µM (≈ 55.4 µg/mL).
In the case of “4-[2-(4-{(5Sa)-4-[(1R)-1-carboxy-2-(2-{[2-(2-methoxyphenyl)pyrimidin-4-yl]methoxy}phenyl)ethoxy]-6-(4-fluorophenyl)thieno[2,3-d]pyrimidin-5-yl}-2-chloro-3-methylphenoxy)ethyl]-1-{[(diethylcarbamoyl)oxy]methyl}-1-methylpiperazin-1-ium trifluoroacetate [Example 19]”, the IC50 in data set [1] worked out at 1.2e-09 M; in data set [2] (H929 cells), 1640 nM.
As for `COc1ccccc1-c1nccc(COc2ccccc2CC(Oc2ncnc3sc(-c4ccc(F)cc4)c(-c4ccc(OCCN5CC[N+](C)(COC(C)=O)CC5)c(Cl)c4Br)c23)C(=O)O)n1` [Example 25, 1-[(acetyloxy)methyl]-4-[2-(3-bromo-4-{(5Sa)-4-[(1R)-1-carboxy-2-(2-{[2-(2-methoxyphenyl)pyrimidin-4-yl]methoxy}phenyl)ethoxy]-6-(4-fluorophenyl)thieno[2,3-d]pyrimidin-5-yl}-2-chlorophenoxy)ethyl]-1-methylpiperazin-1-ium trifluoroacetate], the half-maximal inhibitory concentration (IC50) in data set [1] came to 1.07e-09 M; in data set [2] (H929 cells) it was 1.95 nM.
